What all share (assay type): physicochemical
Data set [1] can be described thus: Hygroscopicity test (dynamic vapor sorption, DVS), with XRPD before and after. Conditions: for moisture uptake (DVS): 25° C./80% RH. As for the experimental part:
(§1) DVS profiles were acquired on SMS (Surface Measurement Systems) DVS Intrinsic and DVS Intrinsic plus. The relative humidity at 25° C. was calibrated using the deliquescence points of LiCl, Mg(NO3)2, and KCl.

The nature of data set [2]: Solid stability evaluation (XRPD and HPLC) of samples left to stand open. Conditions: for HPLC peak 6, RRT 1.00 (main peak): in %. As for the experimental part:
The crystal form A was left to stand open at 60° C. for 24 hours, and at 25° C./60% RH and 40° C./75% RH for 1 week. The physical and chemical stability of the samples was detected by XRPD and HPLC. The stability evaluation results are summarized in Table 4, the XRPD results are shown in FIG. 12, and the HPLC results are shown in Table 5 and FIG. 13.

The nature of data set [3]: Crystal form stability on drying or heating (XRPD). As for the experimental part: 40.05 g of the crude compound of formula (I) was weighed and mixed with ethanol of 5 folds by mass, and the mixture was stirred at 25° C. for 30 minutes. At this point, a visible solid precipitate was observed. The mixture was stirred for another 2-3 hours, followed by filtration. The wet cake was washed with 80 mL of ethanol. Three solvate crystal forms, C1, C2, and C3, with different structures were detected in the undried wet product of the compound of formula (I) formed in ethanol. Their XRPD results are shown in FIGS. 9A-9C, Table 2-1, Table 2-2, and Table 2-3.
Furthermore, the sample had 3 endothermic peaks at 85.6° C., 130.7° C., and 144.3° C. (peak temperatures). […] To further investigate the substantial TGA weight loss of the crystal form B sample, a heating experiment was performed on it. […] Due to the crystal form conversion upon sample heating, combined with the substantial TGA weight loss and the solvent residue indicated by the nuclear magnetic resonance results after heating, it can be inferred that crystal form B is a toluene solvate.
as §1

Setting [4] is: open, 60° C. 24 hours, 25° C./60% RH and 40° C./75% RH 1 week.

Each structure is given as a SMILES string.

As for `CO[C@H]1/C=C/O[C@@]2(C)Oc3c(C)c(O)c4c(c3C2=O)C2=NC3(CCN(CCn5c([N+](=O)[O-])cnc5C)CC3)NC2=C(NC(=O)/C(C)=C\C=C\[C@H](C)[C@H](O)[C@@H](C)[C@@H](O)[C@@H](C)[C@H](OC(C)=O)[C@@H]1C)C4=O` [amorphous form], the “moisture uptake (DVS)” value in data set [1] was found to be 5.941%.
`CO[C@H]1/C=C/O[C@@]2(C)Oc3c(C)c(O)c4c(c3C2=O)C2=NC3(CCN(CCn5c([N+](=O)[O-])cnc5C)CC3)NC2=C(NC(=O)/C(C)=C\C=C\[C@H](C)[C@H](O)[C@@H](C)[C@@H](O)[C@@H](C)[C@H](OC(C)=O)[C@@H]1C)C4=O` [crystal form A]: in data set [1], the “moisture uptake (DVS)” value turned out to be 2.880%. For the same compound, the “crystal form conversion, XRPD before and after the DVS test” value in data set [1] (before and after DVS test) is “no crystal form conversion”. Further, in data set [1] (judged from XRPD before and after DVS test), the “stability of the crystal form” value was “good stability”. In data set [2] (25° C./60% RH/Open/1 week), the “HPLC impurity peak 1, RRT 0.81” value is listed as 0.18; the “HPLC impurity peak 2, RRT 0.83” value came out at 0.06; the “HPLC impurity peak 3, RRT 0.87” value is on record as 0.05; the “HPLC impurity peak 4, RRT 0.91” value is on record as 0.06. For the same compound, in data set [2] (25° C./60% RH/Open/1 week), the “HPLC impurity peak 5, RRT 0.97” value came out at 0.19 and the “HPLC peak 6, RRT 1.00 (main peak)” value is on record as 99.45. Further, in data set [2] (25° C./60° C. RH, 1 week, open), the “Change in crystal form” value is listed as “No” and the HPLC purity was 99.45 area %. Further, in data set [2] (40° C./75% RH, 1 week, open), the “Change in crystal form” value is recorded as “No” and the HPLC purity was 99.29 area %. In data set [2] (40° C./75% RH/Open/1 week), the “HPLC impurity peak 1, RRT 0.81” value was determined as 0.38; the “HPLC impurity peak 2, RRT 0.83” value is listed as 0.06; the “HPLC impurity peak 3, RRT 0.87” value is recorded as 0.05; the “HPLC impurity peak 4, RRT 0.91” value was found to be 0.06. In data set [2] (40° C./75% RH/Open/1 week), the “HPLC impurity peak 5, RRT 0.97” value was 0.16 and the “HPLC peak 6, RRT 1.00 (main peak)” value is 99.29. Moreover, in data set [2] (60° C., 24 hours, open), the “Change in crystal form” value was “No” and the HPLC purity is 99.33 area %. Also, in data set [2] (60° C./open/24 hours), the “HPLC impurity peak 1, RRT 0.81” value turned out to be 0.30; the “HPLC impurity peak 2, RRT 0.83” value was found to be 0.07; the “HPLC impurity peak 3, RRT 0.87” value stood at 0.06; the “HPLC impurity peak 4, RRT 0.91” value was found to be 0.07. In data set [2] (60° C./open/24 hours), the “HPLC impurity peak 5, RRT 0.97” value amounted to 0.17 and the “HPLC peak 6, RRT 1.00 (main peak)” value was found to be 99.33. In data set [2] (Starting sample), the “HPLC impurity peak 1, RRT 0.81” value is given as 0.29; the “HPLC impurity peak 2, RRT 0.83” value came to 0.07; the “HPLC impurity peak 3, RRT 0.87” value turned out to be 0.08; the “HPLC impurity peak 4, RRT 0.91” value is on record as 0.07. In addition, in data set [2] (Starting sample), the “HPLC impurity peak 5, RRT 0.97” value is 0.17; the HPLC purity turned out to be 99.32 area %; the “HPLC peak 6, RRT 1.00 (main peak)” value came to 99.32. Further, in data set [2] (setting [4]), the “change in purity (HPLC)” value is listed as “no significant change in purity” and the “crystal form conversion (XRPD)” value is listed as “no crystal form conversion”.
Regarding `CO[C@H]1/C=C/O[C@@]2(C)Oc3c(C)c(O)c4c(c3C2=O)C2=NC3(CCN(CCn5c([N+](=O)[O-])cnc5C)CC3)NC2=C(NC(=O)/C(C)=C\C=C\[C@H](C)[C@H](O)[C@@H](C)[C@@H](O)[C@@H](C)[C@H](OC(C)=O)[C@@H]1C)C4=O` [crystal form B], the crystal form stability result in data set [3] (after heating or drying, all converted to crystal form A) is listed as “poor crystal form stability”. The “crystal form after air-drying (XRPD)” value in data set [3] (air-drying at room temperature for 24 hours) was “remained unchanged”. Further, the “crystal form after heating (XRPD)” value was “remained unchanged” in data set [3] (heating to 115° C. and cooling to room temperature); “converted to crystal form A” in data set [3] (heating to 140° C. and cooling to room temperature).
For `CO[C@H]1/C=C/O[C@@]2(C)Oc3c(C)c(O)c4c(c3C2=O)C2=NC3(CCN(CCn5c([N+](=O)[O-])cnc5C)CC3)NC2=C(NC(=O)/C(C)=C\C=C\[C@H](C)[C@H](O)[C@@H](C)[C@@H](O)[C@@H](C)[C@H](OC(C)=O)[C@@H]1C)C4=O` [crystal form C1], in data set [3] (wet product from ethanol, after drying), the “crystal form after drying (XRPD)” value is listed as “converted to crystal form A”.

The values are drawn from patent US12723050B2, “Crystal form of compound and use thereof” (TENNOR THERAPEUTICS (SUZHOU) LIMITED, priority 2023, dated 2026).
